The test system of assay [1] is BRAF-MEK-ERK cascade (activated BRAF (V599E), unactive MEK1, unactive MAP Kinase 2/ERK2). In words: BRAF-MEK-ERK enzymatic cascade assay (TR-FRET). The format is biochemical, human. Particulars: compounds screened at 10 μM, 45 minutes pre-incubation with enzymes, 100 μM ATP. The source says:
A BRAF-MEK-ERK cascade assay is used to evaluate the effects of the compounds as inhibitors of the MAP kinase pathway. An enzymatic cascade assay is set up using recombinant human activated BRAF (V599E) kinase (Cat No. 14-557), human full length unactive MEK1 kinase (Cat No. 14-706) and human full length unactive MAP Kinase 2/ERK2 (Cat No. 14-536) enzymes procured from Upstate. TR-FRET (Time resolved fluorescence resonance energy transfer) detection technology is used for the read out. The assay buffer solution contains 50 mM Tris pH 7.5, 10 mM MgCl2, 1 mM DTT, 0.01% Tween 20, 0.1 nM activated BRAF, 2 nM unactive MEK1, 10 nM unactive ERK2, 100 μM ATP and 500 nM long chain biotin-peptide substrate (LCB-FFKNIVTPRTPPP) in a 384 well format. The kinase reaction is stopped after 90 minutes with 10 mM EDTA and Lance detection mix (2 nM Eu-labeled phospho-serine/threonine antibody (Cat. No. AD0176-Perkin Elmer), 20 nM SA-APC (Cat No. CR130-100-Perkin Elmer) is added. The TR-FRET signal (Excitation at 340 nm, Emission at 615 nm and 665 nm) is read with 50 μs delay time on a Victor3 V fluorimeter. The data is calculated using the ratio of readings at 665 nm to 615 nm. The final concentration of DMSO is 2.5% in the assay. Compounds are screened at 10 μM concentration with pre-incubation of the enzymes in the presence of test compound for 45 minutes.
Each individual IC50 is determined using a 10 point dose response curve generated by GraphPad Prism software Version 4 (San Diego, Calif., USA) using non linear regression curve fit for sigmoidal dose response (variable slope).
These assays described above are fully detailed in Han, Shulin, et. al., Bioorganic & Medicinal Chemistry Letters (2005) 15, 5467-5473, and in Yeh, et. al., Clin Cancer Res (2007) 13 (5), 1576-1583.
(§1) The compounds of the above Examples were evaluated as inhibitors of the MAP kinase pathway in a BRAF-MEK-ERK enzymatic cascade assay and in the cell viability assay described above.
Background: TR-FRET usually uses a lanthanide donor and a delayed reading to cut background.

For a further assay, the system named is A375 cells. In words: cell viability assay in A375 cells using XTT. The format is cell-based. Particulars: Homo sapiens, A-375, 72 h, XTT read three days after compound addition. The method, then:
The cell viability assay in A375 cells is set up in a 96-well plate format using XTT.
XTT is a yellow tetrazolium salt that is cleaved to an orange formazan dye by the mitochondria of metabolically active cells. The procedure allows for rapid determination in a microtitre plate, to give reproducible and sensitive results.
A375 cells are grown in DMEM media containing 10% FBS and 1 mM sodium pyruvate. Cells are trypsinized and seeded at 1000 cells/well. After allowing the cells to adhere overnight, compound is added to the wells at the following final concentrations: 10, 3, 1, 0.3, 0.1, 0.03, 0.01, 0.001, and 0.0001 μM. The assay is set up in triplicates for each concentration. DMSO concentrations are kept at 0.5%/well. Three days after compound addition, the XTT assay is performed. Wells are washed once with PBS. 100 μL of DMEM media without phenol red or FBS is added to each well. A working solution of XTT containing 1 mg/ml XTT and 100 μL of PMS (stock concentration 0.383 mg/ml) per 5 ml is prepared. 50 μL of the working solution of XTT is added to each well. Absorbance of the plate is read at 465 nm using a Spectramax 190 (Molecular Devices). The absorbance from wells with media and XTT alone, but without cells is considered the blank and subtracted from readings from all wells.
Percentage viability is calculated considering the blank subtracted value from wells treated with DMSO alone as 100% viable. GI50 values are calculated using Graphpad Prism, using non-linear regression curve fit for sigmoidal dose response (variable slope).
The cell viability assay is further described in Scudiero, et. al., Cancer Research (1988) 48, 4827-4833; Weislow, et. al., J. Natl. Cancer Institute, (1989) 81, 577-586; and Roehm, et. al., J. Immunol. Methods [1991]142:257-265.
as §1
For orientation: Tetrazolium dyes change colour on reduction, which living cells bring about.

On to `Cc1c(Nc2ccc(Br)cc2F)c(NS(=O)(=O)C2CC2)c2n(c1=O)CCN2Cc1ccccc1` [Example 1A, Cyclopropanesulfonic acid [1-benzyl-7-(4-bromo-2-fluoro-phenylamino)-6-methyl-5-oxo-1,2,3,5-tetrahydro-imidazo[1,2-a]pyridin-8-yl]-amide], for which the % inhibition – broadly, how much of the control response was suppressed – in assay [1] stood at 70%.
For `Cc1c(Nc2ccc(Br)cc2F)c(NS(=O)(=O)C2CC2)c2n(c1=O)CCN2` [Example 2A, Cyclopropanesulfonic acid [7-(4-bromo-2-fluoro-phenylamino)-6-methyl-5-oxo-1,2,3,5-tetrahydro-imidazo[1,2-a]pyridin-8-yl]-amide], halving of growth in the assay on A375 cells (GI50) required 800 nM. For the same molecule, in assay [1], the “% inhibition” value came out at 100%.
Turning to `Cc1c(Nc2ccc(I)cc2F)c(NS(=O)(=O)C2CC2)c2n(c1=O)CCN2` [Example 3A, Cyclopropanesulfonic acid [7-(2-fluoro-4-iodo-phenylamino)-6-methyl-5-oxo-1,2,3,5-tetrahydro-imidazo[1,2-a]pyridin-8-yl]-amide], in the assay on A375 cells, it took 19 nM to inhibit growth by half (GI50). In addition, the “% inhibition” value in assay [1] is 100%.
For the molecule `Cc1c(Nc2ccc(Br)cc2F)c(NS(=O)(=O)C2(CC(O)CO)CC2)c2n(c1=O)CCN2` (stereo not shown) [Example 4A, 1-(2,3-Dihydroxy-propyl)-cyclopropanesulfonic acid [7-(4-bromo-2-fluoro-phenylamino)-6-methyl-5-oxo-1,2,3,5-tetrahydro-imidazo[1,2-a]pyridin-8-yl]-amide], in the assay on A375 cells, growth was halved (GI50) at 2880 nM. Also, the “% inhibition” value in assay [1] stood at 100%.
The corresponding values for `Cc1c(Nc2ccc(I)cc2F)c(NS(=O)(=O)C2(CC(O)CO)CC2)c2n(c1=O)CCN2` (stereo not shown) [Example 5A, 1-(2,3-Dihydroxy-propyl)-cyclopropanesulfonic acid [7-(2-fluoro-4-iodo-phenylamino)-6-methyl-5-oxo-1,2,3,5-tetrahydro-imidazo[1,2-a]pyridin-8-yl]-amide] are 293 nM and 100%.
In the same order, the values of `Cc1c(Nc2ccc(I)cc2F)c(NS(=O)(=O)C2CC(O)C2)c2n(c1=O)CCN2` (stereo not shown) [Example 6A, 3-Hydroxy-cyclobutanesulfonic acid [7-(2-fluoro-4-iodo-phenylamino)-6-methyl-5-oxo-1,2,3,5-tetrahydro-imidazo[1,2-a]pyridin-8-yl]-amide] are 1380 nM and 100%.
As to `Cc1c(Nc2ccc(I)cc2F)c(NS(=O)(=O)C2CC2)c2n(c1=O)CCO2` [Example 7A, Cyclopropanesulfonic acid [7-(2-fluoro-4-iodo-phenylamino)-6-methyl-5-oxo-2,3-dihydro-5H-oxazolo[3,2-a]pyridin-8-yl]-amide], it took 26 nM to inhibit growth in the assay on A375 cells by half (GI50). Also, in assay [1], the “% inhibition” value was 99%.
For `Cc1c(Nc2ccc(I)cc2F)c(NS(=O)(=O)C2CC2CO)c2n(c1=O)CCO2` (stereo not shown) [Example 8A, 2-Hydroxymethyl-cyclopropanesulfonic acid [7-(2-fluoro-4-iodo-phenylamino)-6-methyl-5-oxo-2,3-dihydro-5H-oxazolo[3,2-a]pyridin-8-yl]-amide], halving of growth in the assay on A375 cells (GI50) required 122 nM. Also, the “% inhibition” value in assay [1] is reported as 100%.
In the same order, the values of `Cc1c(Nc2ccc(I)cc2F)c(NS(=O)(=O)C2(CCO)CC2)c2n(c1=O)CCO2` [Example 9A, 1-(2-Hydroxy-ethyl)-cyclopropanesulfonic acid [7-(2-fluoro-4-iodo-phenylamino)-6-methyl-5-oxo-2,3-dihydro-5H-oxazolo[3,2-a]pyridin-8-yl]-amide] are 19 nM and 100%.
The corresponding values for `Cc1c(Nc2ccc(I)cc2F)c(NS(=O)(=O)C2(CC(O)CO)CC2)c2n(c1=O)CCO2` (stereo not shown) [Example 10A, 1-(2,3-Dihydroxy-propyl)-cyclopropanesulfonic acid [7-(2-fluoro-4-iodo-phenylamino)-6-methyl-5-oxo-2,3-dihydro-5H-oxazolo[3,2-a]pyridin-8-yl]-amide] are 33 nM and 100%.
The corresponding values for `Cc1c(Nc2ccc(I)cc2F)c(NS(=O)(=O)C2(CO)CC2)c2n(c1=O)CCO2` [Example 11A, 1-Hydroxymethyl-cyclopropanesulfonic acid [7-(2-fluoro-4-iodo-phenylamino)-6-methyl-5-oxo-2,3-dihydro-5H-oxazolo[3,2-a]pyridin-8-yl]-amide] are 20 nM and 100%.
For the molecule `Cc1c(Nc2ccc(I)cc2F)c(NS(=O)(=O)C2(CCCO)CC2)c2n(c1=O)CCO2` [Example 12A, 1-(3-Hydroxy-propyl)-cyclopropanesulfonic acid [7-(2-fluoro-4-iodo-phenylamino)-6-methyl-5-oxo-2,3-dihydro-5H-oxazolo[3,2-a]pyridin-8-yl]-amide], the 50% growth inhibitory concentration (GI50) – broadly, the concentration giving 50% growth inhibition – in the assay on A375 cells was 11 nM. Besides, the “% inhibition” value in assay [1] came to 100%.
Molecule `Cc1c(Nc2ccc(I)cc2F)c(NS(=O)(=O)C2CC(O)C2)c2n(c1=O)CCO2` (stereo not shown) [Example 13A, 3-Hydroxy-cyclobutanesulfonic acid [7-(2-fluoro-4-iodo-phenylamino)-6-methyl-5-oxo-2,3-dihydro-5H-oxazolo[3,2-a]pyridin-8-yl]-amide] registered a GI50 in the assay with A375 cells of 122 nM. Moreover, in assay [1], the “% inhibition” value stood at 100%.
In the same order, the values of `Cc1c(Nc2ccc(I)cc2F)c(NS(=O)(=O)C2CCC2)c2n(c1=O)CCO2` [Example 14A, Cyclobutanesulfonic acid [7-(2-fluoro-4-iodo-phenylamino)-6-methyl-5-oxo-2,3-dihydro-5H-oxazolo[3,2-a]pyridin-8-yl]-amide] are 16 nM and 100%.
`Cc1c(Nc2ccc(I)cc2F)c(NS(=O)(=O)C2CC(C(CO)CO)C2)c2n(c1=O)CCO2` (stereo not shown) [Example 15A, 3-(1,3-dihydroxypropan-2-yl)-N-(7-(2-fluoro-4-iodophenylamino)-6-methyl-5-oxo-3,5-dihydro-2H-oxazolo[3,2-a]pyridin-8-yl)cyclobutane-1-sulfonamide] displayed a GI50 in the assay with A375 cells of 1530 nM. Also, the “% inhibition” value in assay [1] is on record as 100%.
The corresponding values for `Cc1c(Nc2ccc(I)cc2F)c(NS(=O)(=O)CC2(C)COC2)c2n(c1=O)CCO2` [Example 16A, N-(7-(2-fluoro-4-iodophenylamino)-6-methyl-5-oxo-3,5-dihydro-2H-oxazolo[3,2-a]pyridin-8-yl)-1-(3-methyloxetan-3-yl)methanesulfonamide] are 1300 nM and 100%.
In turn, `Cc1c(Nc2ccc(I)cc2F)c(NS(=O)(=O)CCC2COC2)c2n(c1=O)CCO2` [Example 17A, N-(7-(2-fluoro-4-iodophenylamino)-6-methyl-5-oxo-3,5-dihydro-2H-oxazolo[3,2-a]pyridin-8-yl)-2-(oxetan-3-yl)ethanesulfonamide] showed a GI50 with A375 cells of 1730 nM.
The molecule `Cc1c(Nc2ccc(I)cc2F)c(NS(=O)(=O)CCC(CO)CO)c2n(c1=O)CCO2` [Example 18A, N-(7-(2-fluoro-4-iodophenylamino)-6-methyl-5-oxo-3,5-dihydro-2H-oxazolo[3,2-a]pyridin-8-yl)-4-hydroxy-3-(hydroxymethyl)butane-1-sulfonamide] returned a concentration for 50% growth inhibition (GI50) in the assay on A375 cells of 4260 nM. Further, the “% inhibition” value in assay [1] is 100%.

The values are drawn from patent publication US8466289B2, “Heterocyclic sulfonamide derivatives” (Novartis AG, priority 2009, dated 2013).
